Test results taken from US20250333421A1, “PYRIDAZINES OR 1,2,4-TRIAZINES SUBSTITUTED BY SPIROCYCLIC AMINES” (Janssen Pharmaceutica NV, priority 2021, published 2025).

Experiments:
Menin/MLL = target: T1, Menin/MLL (Homo sapiens, UniProt O00255, T541A); assay: Menin/MLL homogenous time-resolved fluorescence (HTRF) assay; format: binding; settings: 30 min incubation of test compound with terbium chelate-labeled menin; FITC-MBM1 peptide
T1 construct: Menin (a.a 1-610-6xhis tag)
T1 sequence (O00255 with tags, fused parts or gaps T541A): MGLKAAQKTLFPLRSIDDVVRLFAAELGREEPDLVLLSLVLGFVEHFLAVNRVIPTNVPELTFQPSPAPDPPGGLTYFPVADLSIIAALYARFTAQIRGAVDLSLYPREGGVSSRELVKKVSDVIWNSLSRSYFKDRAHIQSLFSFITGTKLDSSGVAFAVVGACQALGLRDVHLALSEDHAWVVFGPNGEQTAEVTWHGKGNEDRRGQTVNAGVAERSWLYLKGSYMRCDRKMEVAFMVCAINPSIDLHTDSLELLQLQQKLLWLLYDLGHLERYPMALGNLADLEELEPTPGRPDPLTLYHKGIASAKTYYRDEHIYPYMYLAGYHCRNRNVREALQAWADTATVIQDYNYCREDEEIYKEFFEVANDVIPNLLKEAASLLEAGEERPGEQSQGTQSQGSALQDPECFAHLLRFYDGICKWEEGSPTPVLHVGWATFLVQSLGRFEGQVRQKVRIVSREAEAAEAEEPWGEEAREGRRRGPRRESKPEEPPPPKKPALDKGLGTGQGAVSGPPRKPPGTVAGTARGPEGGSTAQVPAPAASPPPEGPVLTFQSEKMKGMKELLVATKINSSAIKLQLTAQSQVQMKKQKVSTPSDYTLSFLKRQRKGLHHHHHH
Description: 1) Menin/MLL homogenous time-resolved fluorescence (HTRF) assay
To an untreated, white 384-well microtiter plate was added 40 nL 200X test compound in DMSO and 4 μL 2X terbium chelate-labeled menin (vide infra for preparation) in assay buffer (40 mM Tris-HCl, pH 7.5, 50 mM NaCl, 1 mM DTT (dithiothreitol) and 0.05% Pluronic F-127). After incubation of test compound and terbium chelate-labeled menin for 30 min at ambient temperature, 4 μL 2X FITC-MBM1 peptide (FITC-β-alanine-SARWRFPARPGT-NH2 (SEQ ID NO: 2)) (“FITC” means fluorescein isothiocyanate) in assay buffer was added, the microtiter plate centrifuged at 1000 rpm for 1 min and the assay mixtures incubated for 15 min at ambient temperature. The relative amount of menin FITC--MBM1 complex present in an assay mixture is determined by measuring the homogenous time-resolved fluorescence (HTRF) of the terbium/FITC donor/acceptor fluorphore pair using an EnVision microplate reader (ex. 337 nm/terbium em. 490 nm/FITC em. 520 nm) at ambient temperature. The degree of fluorescence resonance energy transfer (the HTRF value) is expressed as the ratio of the fluorescence emission intensities of the FITC and terbium fluorophores (F^em 520 nm/F^em 490 nm). The final concentrations of reagents in the binding assay are 200 pM terbium chelate-labeled menin, 75 nM FITC-MBM1 peptide and 0.5% DMSO in assay buffer. Dose-response titrations of test compounds are conducted using an 11 point, four-fold serial dilution scheme, starting typically at 10 μM.
Compound potencies were determined by first calculating % inhibition at each compound concentration according to equation 1: […]
Where LC and HC are the HTRF values of the assay in the presence or absence of a saturating concentration of a compound that competes with FITC-MBM1 for binding to menin, and HTRF^compound is the measured HTRF value in the presence of the test compound. HC and LC HTRF values represent an average of at least 10 replicates per plate.
Where Bottom and Top are the lower and upper asymptotes of the dose-response curve, respectively, IC50 is the concentration of compound that yields 50% inhibition of signal and h is the Hill coefficient. IC50 values below 0.1 nM in the HTRF assay were reported as 0.1 nM in the Table below (detection limit).
Preparation of Terbium cryptate labeling of Menin: Menin (a.a 1-610-6xhis tag, 2.3 mg/mL in 20 mM Hepes (2-[4-(2-Hydroxyethyl)-1-piperazinyl]ethane sulfonic acid), 80 mM NaCl, 5 mM DTT (Dithiothreitol), pH 7.5) was labeled with terbium cryptate as follows. 200 μg of Menin was buffer exchanged into lx Hepes buffer. 6.67 μM Menin was incubated with 8-fold molar excess NHS (N-hydroxysuccinimide)-terbium cryptate for 40 minutes at room temperature. Half of the labeled protein was purified away from free label by running the reaction over a NAP5 column with elution buffer (0.1M Hepes, pH 7+0.1% BSA (bovine serum albumin)). The other half was eluted with 0.1 M phosphate buffered saline (PBS), pH7. 400 μl of eluent was collected for each, aliquoted and frozen at −80° C. The final concentration of terbium-labeled Menin protein was 115 μg/mL in Hepes buffer and 85 μg/mL in PBS buffer, respectively.

MOLM14 cells = assay: Proliferation assay (spheroid assay) in MOLM14; format: cell-based; settings: Homo sapiens, MOLM-14, 192 h; MOLM14 (MLL-AF9), 8 days, confluence as measure of spheroid size; read-out: spheroid assay_OneTime MOLM14 IC50
Description: (§1) The anti-proliferative effect of menin/MLL protein/protein interaction inhibitor test compounds was assessed in human leukemia cell lines. The cell line MOLM14 harbors a MLL translocation and expresses the MLL fusion proteins MLL-AF9, respectively, as well as the wildtype protein from the second allele. […] KO-52 was used as a control cell line containing two MLL (KMT2A) wildtype alleles in order to exclude compounds that display general cytotoxic effects.
MOLM14 cells were cultured in RPMI-1640 (Sigma Aldrich) supplemented with 10% heat-inactivated fetal bovine serum (HyClone), 2 mM L-glutamine (Sigma Aldrich) and 50 µg/ml gentamycin (Gibco). KO-52 cell lines were propagated in alpha-MEM (Sigma Aldrich) supplemented with 20% heat-inactivated fetal bovine serum (HyClone), 2 mM L-glutamine (Sigma Aldrich) and 50 µg/ml gentamycin (Gibco).
In order to assess the anti-proliferative effects, 200 MOLM14 cells, or 300 KO-52 cells were seeded in 200 μl media per well in 96-well round bottom, ultra-low attachment plates (Costar, catalogue number 7007). Cell seeding numbers were chosen based on growth curves to ensure linear growth throughout the experiment. Test compounds were added at different concentrations and the DMSO content was normalized to 0.3%. Cells were incubated for 8 days at 37° C. and 5% CO2. Spheroid like growth was measured in real-time by live-cell imaging (IncuCyteZOOM, Essenbio, 4× objective) acquiring images at day 8. Confluence (%) as a measure of spheroid size was determined using an integrated analysis tool.
In order to determine the effect of the test compounds over time, the confluence in each well as a measure of spheroid size, was calculated. Confluence of the highest dose of a reference compound was used as baseline for the LC (Low control) and the confluence of DMSO treated cells was used as 0% cytotoxicity (High Control, HC).
Absolute IC50 values were calculated as percent change in confluence as follows:
LC=Low Control: cells treated with e.g. 1 μM of the cytotoxic agent staurosporin, or e.g. cells treated with a high concentration of an alternative reference compound
GraphPad Prism (version 7.00) was used to calculate the IC50. Dose-response equation was used for the plot of % Effect vs Log10 compound concentration with a variable slope and fixing the maximum to 100% and the minimum to 0%.

KO-52 cells = assay: Proliferation assay (spheroid assay) in KO-52 control cell line; format: cell-based; settings: Homo sapiens, 192 h; KO-52 (MLL wildtype control), 8 days, confluence as measure of spheroid size; read-out: spheroid assay_OneTime KO-52 IC50
Description: as §1
MOLM14 cells were cultured in RPMI-1640 (Sigma Aldrich) supplemented with 10% heat-inactivated fetal bovine serum (HyClone), 2 mM L-glutamine (Sigma Aldrich) and 50 µg/ml gentamycin (Gibco). […]
In order to assess the anti-proliferative effects, 200 MOLM14 cells, or 300 KO-52 cells were seeded in 200 μl media per well in 96-well round bottom, ultra-low attachment plates (Costar, catalogue number 7007). […] Spheroid like growth was measured in real-time by live-cell imaging (IncuCyteZOOM, Essenbio, 4× objective) acquiring images at day 8. Confluence (%) as a measure of spheroid size was determined using an integrated analysis tool.
In order to determine the effect of the test compounds over time, the confluence in each well as a measure of spheroid size, was calculated. […]
Absolute IC50 values were calculated as percent change in confluence as follows: […]

CCN(C(=O)c1cc(F)ccc1Oc1nncnc1N1CCC2(C1)CN(C(CCCN(C)CCOC(F)(F)F)C(C)C)C2)C(C)C (single isomer, unassigned) [Compound 2]
IC50 (Menin/MLL): 0.376 nM | IC50 (MOLM14 cells): 20 nM | IC50 (KO-52 cells): 14600 nM
